The text below walks through data of patent publication US9034887B2, “Dihydroorotate dehydrogenase as antifungal drug target and quinazolinone-based inhibitors thereof” (F2G Limited, priority 2008, dated 2015).

Experiment [1] concerns the target T1, Recombinant DHODH from C. albicans (Candida albicans, UniProt Q874I4).
T1 construct: His-tag; NusA (Nus-tag) fusion of vector pET43.1 (own knowledge of the vector) (N); made in house; host or cells: E. coli BL21 DE3
T1 sequence (Q874I4 57-444): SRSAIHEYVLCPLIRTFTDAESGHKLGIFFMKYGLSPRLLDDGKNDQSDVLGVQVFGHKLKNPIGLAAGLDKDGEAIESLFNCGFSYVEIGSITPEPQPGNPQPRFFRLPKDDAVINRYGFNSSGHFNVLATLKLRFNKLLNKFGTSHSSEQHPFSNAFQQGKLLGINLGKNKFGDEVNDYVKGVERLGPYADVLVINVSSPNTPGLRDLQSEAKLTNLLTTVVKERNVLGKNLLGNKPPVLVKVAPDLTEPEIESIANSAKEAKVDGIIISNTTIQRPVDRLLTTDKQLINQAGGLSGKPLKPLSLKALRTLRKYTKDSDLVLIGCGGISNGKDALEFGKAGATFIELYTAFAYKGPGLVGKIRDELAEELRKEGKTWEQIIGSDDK
As to the kind of experiment: DHODH inhibition screen (DCIP reduction, 600 nm), C. albicans enzyme. The experiment is classed as biochemical. The procedure: (§1) 1. The following buffer and stock solution were prepared:
(§2) Coenzyme Q2 (Sigma) was dissolved in DMSO to give a concentration of 10 mg/ml. […] The stock solution was made with 127.36 μl DHO, 127.36 μl DCIP and 318.4 μl Coenzyme Q2, made up to 80 ml with Buffer A. Final concentrations in assay wells were; DHO, 500 μM; Coenzyme Q, 50 μM; DCIP, 100 μM.
(§3) 2. […] Duplicate sets of plates were used such that one set received enzyme while a control set received no enzyme.
(§4) 3. […] Then 20 μl of DHODH solution was added to all the +enzyme plates and 20 μl of Buffer A was added to all the control −enzyme plates.
(§5) 4. 20 μl of DHO/Coenzyme Q2/DCIP solution was added to all the wells, after which plates were incubated at room temperature for […] and then read on a Tecan Safire spectrophotometer at 600 nm.
(§6) Recombinant DHODH from human or C. albicans was assayed in the same way. It is necessary to adjust the enzyme concentration and reaction time to take into account variations in activity of enzyme batches, thus the incubation time was 20 minutes for the C. albicans enzyme and 34 minutes for the human enzyme.

Experiment [2] concerns the target T2, Recombinant DHODH from human (Homo sapiens, UniProt Q02127).
T2 construct: His-tag; NusA (Nus-tag) fusion of vector pET43.1 (own knowledge of the vector) (N); made in house; host or cells: E. coli BL21 DE3
Kind of experiment: DHODH inhibition screen (DCIP reduction, 600 nm), human enzyme. The experiment is classed as biochemical. The settings on record: Table 3, read-out: IC50 values for Compound Examples 1 to 15 identified from screens, Human. The procedure:
as §1, §2, §3, §4, §5, §6

In experiment [3] the target is Recombinant A. fumigatus DHODH (Aspergillus fumigatus, UniProt Q4X169). Kind of experiment: DHODH inhibition screen (DCIP reduction, 600 nm), A. fumigatus enzyme. The experiment is classed as biochemical. The procedure:
as §1
Buffer A: 62.5 mM TrisHCl (pH8.0), 150 mM NaCl, 10% v/v glycerol
DHO/Coenzyme Q2/DCIP solution: 19.848 mg dihydroorotate (DHO; Sigma) was dissolved in 160 μl DMSO. Coenzyme Q2 (Sigma) was dissolved in DMSO to give a concentration of 10 mg/ml. 7.236 mg 2,6-dichloroindophenol (DCIP; Sigma) was dissolved in 160 μl DMSO. The stock solution was made with 127.36 μl DHO, 127.36 μl DCIP and 318.4 μl Coenzyme Q2, made up to 80 ml with Buffer A. Final concentrations in assay wells were; DHO, 500 μM; Coenzyme Q, 50 μM; DCIP, 100 μM.
2. Compounds were aliquotted into 384-well microtitre plates at a range of dilutions to give final concentrations in the assay of […]. Duplicate sets of plates were used such that one set received enzyme while a control set received no enzyme. Since compounds are frequently dissolved in DMSO or a DMSO/water mixture, assays were set up to give a final concentration of 1% (v/v) DMSO in wells.
3. Recombinant A. fumigatus DHODH was suspended in Buffer A to give a concentration of 1435.8 ng protein in 20 μl. Then 20 μl of DHODH solution was added to all the +enzyme plates and 20 μl of Buffer A was added to all the control −enzyme plates.
as §5
Recombinant DHODH from human or C. albicans was assayed in the same way. It is necessary to adjust the enzyme concentration and reaction time to take into account variations in activity of enzyme batches, thus the incubation time was 20 minutes for the C. albicans enzyme and 34 minutes for the human enzyme. Compounds are screened against a fungal and human enzyme to identify compounds which are selective for the fungal enzyme.

For experiment [4], the system named is Aspergillus flavus. As to the kind of experiment: MIC in YAG medium, A. flavus. It is filed as cell-based. The settings on record: 24 hrs at 35° C., >70% growth inhibition, read-out: MIC grade, A. flavus. The procedure:
(§7) Between 1 and 5 mgs of compound were accurately weighed out into a sterile Eppendorf tube. The compound was dissolved in DMSO to give a solution containing 5 mg/mL. Tubes were stored at −20° C. until required.
(§8) On the day of testing thawed solutions were vortex mixed to ensure homogeneity. 30 μL of solution was removed and added to 570 μL of sterile water in a separate sterile Eppendorf. The thoroughly mixed solution was used to prepare a series of doubling dilutions in water, in a deep well plate. Thirteen replicate plates were prepared using a Minitrak by aspirating 20 μL from each well into eleven clear polystyrene 96 well plates.
(§9) Spores of Aspergillus spp. (Aspergillus fumigatus [two strains], Aspergillus terreus [two strains], Aspergillus niger and Aspergillus flavus) were harvested from cultures grown on Sabarauds agar for 5 days, and resuspended in PBS/Tween 80 to approx 1×10^7 cfu/mL. Each organism suspension was diluted in YAG medium (1% glucose, 1% ammonium chloride and 0.5% yeast extract) to 0.5-2×10^4 cfu/mL. 80 μL of an organism suspension was added to each well of the plate containing drug dilutions.
(§10) All plates were incubated for 24 hrs at 35° C. Growth was assessed by monitoring the optical density at 485 nm for each well. The MIC of a compound is the lowest drug concentration that inhibits growth of an organism by >70% compared with a drug free control. MICs are recorded as mg/L. In cases where the MIC of an organism is […] the MIC is repeated using a concentration range of 0.5-0.0005 mg/L.

The next experiment has as its system Aspergillus fumigatus. Kind of experiment: MIC in YAG medium, A. fumigatus. The experiment is classed as cell-based. Conditions: 24 hrs at 35° C., >70% growth inhibition, read-out: MIC grade, A. fumigatus. The procedure: as §7, §8, §9, §10
A further experiment concerns A. fumigatus 210. As to the kind of experiment: MIC in YAG medium, A. fumigatus 210. The experiment is classed as cell-based. Conditions: Aspergillus fumigatus, 24 hrs at 35° C., >70% growth inhibition, read-out: MIC grade, A. fumigatus 210. The procedure: as §7, §8, §9, §10
In experiment [5] the test system is Aspergillus niger. As to the kind of experiment: MIC in YAG medium, A. niger. Conditions: 24 hrs at 35° C., >70% growth inhibition, read-out: MIC grade, A. niger. It is filed as cell-based. The procedure:
as §7, §8, §9, §10

In a further experiment the test system is Aspergillus terreus. As to the kind of experiment: MIC in YAG medium, A. terreus. Conditions: 24 hrs at 35° C., >70% growth inhibition, read-out: MIC grade, A. terreus. The experiment is classed as cell-based. The procedure:
as §7, §8, §9, §10

In another experiment the test system is A. terreus 49. Kind of experiment: MIC in YAG medium, A. terreus 49. The experiment is classed as cell-based. The settings on record: Aspergillus terreus, 24 hrs at 35° C., >70% growth inhibition, read-out: MIC grade, A. terreus 49. The procedure: as §7, §8, §9, §10
Experiment [6] has as its system Aspergillus flavus. As to the kind of experiment: MIC in RPMI medium, A. flavus. The experiment is classed as cell-based. Conditions: 24-48 hrs at 35° C., >80% growth inhibition, read-out: MIC grade, A. flavus. The procedure:
as §7, §8
(§11) Assays were also performed in RPMI medium. To perform MIC tests in this medium, dilutions of compounds are prepared in microtitre plates as described above. Fungal strains to be tested are grown and harvested in an identical manner to that described above, and each organism suspension was diluted in RPMI medium, containing 2% glucose and 0.135 M MOPS buffer (pH 7.0) to 0.5-2×10^4 cfu/mL, rather than in YAG medium. 80 μL of an organism suspension was added to each well of the plate containing drug dilutions.
(§12) All plates were incubated for 24-48 hrs at 35° C. Growth was assessed by monitoring the optical density at 485 nm for each well. […] The following organisms were tested: Aspergillus flavus, Aspergillus fumigatus AF293 and AF210, Aspergillus niger and Aspergillus terreus AT4 and AT49.

Experiment [7] relates to Aspergillus fumigatus AF293. Kind of experiment: MIC in RPMI medium, A. fumigatus. Conditions: 24-48 hrs at 35° C., >80% growth inhibition, read-out: MIC grade, A. fumigatus. The experiment is classed as cell-based. The procedure: as §7, §8, §11, §12
Experiment [8] has as its system Aspergillus fumigatus AF210. Kind of experiment: MIC in RPMI medium, A. fumigatus 210. It is filed as cell-based. Conditions: 24-48 hrs at 35° C., >80% growth inhibition, read-out: MIC grade, A. fumigatus 210. The procedure: as §7, §8, §11, §12
Experiment [9] concerns Aspergillus niger. Kind of experiment: MIC in RPMI medium, A. niger. Conditions: 24-48 hrs at 35° C., >80% growth inhibition, read-out: MIC grade, A. niger. The experiment is classed as cell-based. The procedure: as §7, §8, §11, §12
For another experiment, the system named is Aspergillus terreus AT4. As to the kind of experiment: MIC in RPMI medium, A. terreus. The experiment is classed as cell-based. Conditions: 24-48 hrs at 35° C., >80% growth inhibition, read-out: MIC grade, A. terreus. The procedure:
as §7, §8, §11, §12

The next experiment has as its system Aspergillus terreus AT49. As to the kind of experiment: MIC in RPMI medium, A. terreus 49. The experiment is classed as cell-based. Conditions: 24-48 hrs at 35° C., >80% growth inhibition, read-out: MIC grade, A. terreus 49. The procedure: as §7, §8, §11, §12

Values after ≈ are worked out from the molar mass of the structure shown. Some results are limits rather than exact numbers.

Sequence of Recombinant A. fumigatus DHODH (Q4X169 entry or part of it): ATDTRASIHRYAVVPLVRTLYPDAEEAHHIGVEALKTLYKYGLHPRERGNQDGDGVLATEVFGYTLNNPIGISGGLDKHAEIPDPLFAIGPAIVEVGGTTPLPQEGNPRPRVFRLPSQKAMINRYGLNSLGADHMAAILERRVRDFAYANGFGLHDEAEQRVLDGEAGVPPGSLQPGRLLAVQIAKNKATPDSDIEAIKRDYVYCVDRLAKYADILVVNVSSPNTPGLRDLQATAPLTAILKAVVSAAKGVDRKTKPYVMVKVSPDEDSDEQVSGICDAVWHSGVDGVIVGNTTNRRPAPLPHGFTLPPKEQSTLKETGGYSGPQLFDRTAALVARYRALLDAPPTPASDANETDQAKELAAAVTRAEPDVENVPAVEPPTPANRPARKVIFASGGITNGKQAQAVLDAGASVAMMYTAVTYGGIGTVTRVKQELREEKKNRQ
T2 sequence (Q02127 31-395 limits assumed): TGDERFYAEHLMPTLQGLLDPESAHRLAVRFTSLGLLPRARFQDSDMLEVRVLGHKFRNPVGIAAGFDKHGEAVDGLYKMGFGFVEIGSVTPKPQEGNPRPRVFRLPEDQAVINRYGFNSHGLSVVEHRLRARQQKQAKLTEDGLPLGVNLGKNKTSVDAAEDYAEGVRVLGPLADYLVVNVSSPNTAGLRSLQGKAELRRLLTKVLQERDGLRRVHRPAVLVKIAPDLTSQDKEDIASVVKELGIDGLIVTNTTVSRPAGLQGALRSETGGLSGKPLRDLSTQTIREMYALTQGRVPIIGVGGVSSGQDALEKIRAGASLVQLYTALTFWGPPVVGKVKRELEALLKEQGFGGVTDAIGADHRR

For orientation: IC50 means the concentration at which inhibition is half-maximal. As to `Cc1c(-c2ccc(-c3ccccc3F)cc2)nc2ccc(F)cc2c1C(=O)O` [Brequinar, brequinar], the IC50 in [1] was determined as 143 µM.

The MIC is the least concentration at which growth counts as inhibited. For `CCSc1nc2cccc(OC)c2c(=O)n1-c1ccccc1OC` [Compound Example 12, 2-Ethylsulfanyl-5-methoxy-3-(2-methoxy-phenyl)-3H-quinazolin-4-one], the half-inhibitory concentration (IC50) in [2] worked out at 117 µM; in experiment [3] it was 26.9 µM. The MIC is 1 to 10 µg/mL (≈ 2.92 to 29.2 µM) with Aspergillus flavus [4]; under 1 µg/mL in the experiment with Aspergillus fumigatus; under 1 µg/mL in the experiment with A. fumigatus 210; under 1 µg/mL with Aspergillus niger [5]; 1 to 10 µg/mL (≈ 2.92 to 29.2 µM) in the experiment on Aspergillus terreus; under 1 µg/mL with A. terreus 49. Further, the MIC with Aspergillus flavus [6] was over 10 µg/mL; in experiment [7], 1 to 10 µg/mL (≈ 2.92 to 29.2 µM); in experiment [8], 1 to 10 µg/mL (≈ 2.92 to 29.2 µM); with Aspergillus niger [9], under 1 µg/mL; in the experiment with Aspergillus terreus AT4 it was 1 to 10 µg/mL (≈ 2.92 to 29.2 µM); in the experiment with Aspergillus terreus AT49, 1 to 10 µg/mL (≈ 2.92 to 29.2 µM).

As for `CCSc1nc2cccc(C)c2c(=O)n1-c1ccccc1OC` [Compound Example 14, 2-Ethylsulfanyl-3-(2-methoxy-phenyl)-5-methyl-3H-quinazolin-4-one], the IC50 in [2] was found to be 32.1 µM; in experiment [3] it was 43.7 µM. Besides, the minimum inhibitory concentration (MIC) was 1 to 10 µg/mL (≈ 3.06 to 30.6 µM) in the experiment with Aspergillus flavus [4]; under 1 µg/mL in the experiment with Aspergillus fumigatus; under 1 µg/mL in the experiment on A. fumigatus 210; under 1 µg/mL in the experiment with Aspergillus niger [5]; under 1 µg/mL in the experiment on Aspergillus terreus; under 1 µg/mL in the experiment with A. terreus 49. Besides, the MIC was over 10 µg/mL in the experiment with Aspergillus flavus [6]; 1 to 10 µg/mL (≈ 3.06 to 30.6 µM) in experiment [7]; 1 to 10 µg/mL (≈ 3.06 to 30.6 µM) in [8]; under 1 µg/mL in the experiment with Aspergillus niger [9]; over 10 µg/mL with Aspergillus terreus AT4; 1 to 10 µg/mL (≈ 3.06 to 30.6 µM) in the experiment on Aspergillus terreus AT49.
